{
  "source": "patent US10472687B2",
  "about": "“Methods to identify antituberculosis compounds” (priority 2016, dated 2019)",
  "key": {"MTB H37Rv wildtype": {"system": "MTB H37Rv wildtype", "assay_type": "cell-based, Mycobacterium tuberculosis"}, "MTB H37Rv lacking Rv0324": {"system": "MTB H37Rv lacking Rv0324", "assay_type": "cell-based, Mycobacterium tuberculosis"}, "MTB H37Rv lacking Rv0880": {"system": "MTB H37Rv lacking Rv0880", "assay_type": "cell-based, Mycobacterium tuberculosis"}, "MTB [1]": {"system": "MTB", "assay_type": "cell-based, Mycobacterium tuberculosis"}, "[2]": {"system": "Rv2323c'::GFP strain (Rv0324-responsive promoter)", "assay_type": "cell-based, Mycobacterium tuberculosis", "conditions": "in the presence of BDQ, FIG. 2"}, "MTB [3]": {"system": "MTB", "conditions": "cited from earlier work"}, "[4]": {"target": "mycobacterial F1Fo ATP synthase (Mycobacterium tuberculosis, UniProt P9WPS1+P9WPV7)", "conditions": "cited from earlier work"}},
  "note": "Read-outs that look alike come from different tables or passages of the source.",
  "data": [
    {"compound": "COc1nc2ccc(Br)cc2cc1[C@@H](c1ccccc1)[C@@](O)(CCN(C)C)c1cccc2ccccc12", "note": "[bedaquiline]", "values": [
      {"measurement": "overall growth rate over seven days of treatment", "setting": "MTB H37Rv wildtype", "result": "positive growth rate"},
      {"measurement": "greater survival deficiency compared to the wildtype", "setting": "MTB H37Rv lacking Rv0324", "result": 1.8, "unit": "log10"},
      {"measurement": "overall growth over seven days of treatment", "setting": "MTB H37Rv lacking Rv0324", "result": "negative overall growth"},
      {"measurement": "greater survival deficiency compared to the wildtype", "setting": "MTB H37Rv lacking Rv0880", "result": "1.3 -fold log10"},
      {"measurement": "overall growth over seven days of treatment", "setting": "MTB H37Rv lacking Rv0880", "result": "negative overall growth"},
      {"measurement": "decrease in Rv0880 expression", "setting": "MTB [1]", "result": "> 2.0", "unit": "absolute log2 fold-change"},
      {"measurement": "genes significantly differentially expressed compared to untreated samples", "setting": "MTB [1]", "result": "1,121 genes"},
      {"measurement": "increase in Rv0324 expression upon bedaquiline treatment", "setting": "MTB [1]", "result": "> 1.5", "unit": "absolute log2 fold-change"},
      {"measurement": "downregulated genes among the differentially expressed genes", "setting": "MTB [1]; 15 μM BDQ, 48 and 96 hours combined", "result": 897, "unit": "genes"},
      {"measurement": "GFP fluorescence of the reporter strain", "setting": "[2]", "result": "high level of fluorescence"},
      {"measurement": "MTB killing", "setting": "MTB [3]; after 96 hours", "result": "effective MTB killing occurs"},
      {"measurement": "bactericidal activity", "setting": "MTB [3]; during the first 4-6 days", "result": "almost no bactericidal activity"},
      {"measurement": "bactericidal activity", "setting": "MTB [3]; first 96 hours after BDQ treatment, even at 30 times the MIC", "result": "little bactericidal activity"},
      {"measurement": "selectivity for mycobacterial F1Fo ATP synthase", "setting": "[4]", "result": "high selectivity"}
    ]}
  ]
}
